{"source": "patent US12480920B2", "about": "“Method for the detection and quantification of fosfomycin, impurities and degradation products thereof” (MEITHEAL PHARMACEUTICALS, INC., priority 2019, dated 2025)", "experiment": "Stability study of fosfomycin for injection drug product: analysis of impurities by HILIC-HPLC with CAD detection", "assay_type": "physicochemical", "settings": "fosfomycin for injection drug product (vials, 7.92 g fosfomycin disodium + 150 mg succinic acid), 25° C. and 60% RH; for wt % of impurities at time points (months): 0: 0 months; for wt % of impurities at time points (months): 1: 1 month; for wt % of impurities at time points (months): 3: 3 months; for wt % of impurities at time points (months): 6: 6 months; for wt % of impurities at time points (months): 9: 9 months; for wt % of impurities at time points (months): 12: 12 months", "experimental": "As part of a stability study of fosfomycin for injection drug product, analysis of impurities was performed according to the method of the present invention, using HILIC-HPLC method with CAD detection, as disclosed, for example, in example 2.\nThe sample subjected to the stability test was fosfomycin for injection drug product, namely, vials containing sterile dry powder admixture of 7.92 g of fosfomycin disodium and 150 mg of succinic acid.\nThe samples were kept at 25° C. and 60% RH. Analysis of impurities was performed at the following time points: 0, 1, 3, 6, 9 and 12 months. Impurities are reported at weight percentage 0.05% (limit of detection of the method). “Dtd.” in the table stands for “detected”, meaning that the impurity is detected but is under the limit of detection (0.05 wt %). ND stands for “not detected”.", "data": [{"smiles": "CC(OP(=O)(O)C1OC1C)C(O)P(=O)(O)O", "note": "(stereo not drawn) [Dimer1]", "values": [{"measurement": "wt % of impurities at time points (months): 0", "result": 0.05, "unit": "wt %"}, {"measurement": "wt % of impurities at time points (months): 1", "result": 0.06, "unit": "wt %"}, {"measurement": "wt % of impurities at time points (months): 3", "result": 0.05, "unit": "wt %"}, {"measurement": "wt % of impurities at time points (months): 6", "result": 0.08, "unit": "wt %"}, {"measurement": "wt % of impurities at time points (months): 9", "result": 0.06, "unit": "wt %"}, {"measurement": "wt % of impurities at time points (months): 12", "result": 0.09, "unit": "wt %"}]}, {"smiles": "CC(O)C(O)P(=O)([O-])[O-].[Na+].[Na+]", "note": "(stereo not drawn) [Impurity A, (1,2-dihydroxypropyl)phosphonate]", "values": [{"measurement": "wt % of impurities at time points (months): 0", "result": "Dtd. (“Dtd.” in the table stands for “detected”, meaning that the impurity is detected but is under the limit of detection (0.05 wt %))"}, {"measurement": "wt % of impurities at time points (months): 1", "result": 0.06, "unit": "wt %"}, {"measurement": "wt % of impurities at time points (months): 3", "result": 0.07, "unit": "wt %"}, {"measurement": "wt % of impurities at time points (months): 6", "result": 0.09, "unit": "wt %"}, {"measurement": "wt % of impurities at time points (months): 9", "result": 0.11, "unit": "wt %"}, {"measurement": "wt % of impurities at time points (months): 12", "result": 0.10, "unit": "wt %"}]}, {"smiles": "CC(OP(=O)(OC(C)C(O)P(=O)(O)O)C1OC1C)C(O)P(=O)(O)O", "note": "(stereo not drawn) [Trimer]", "values": [{"measurement": "wt % of impurities at time points (months): 0", "result": "Dtd"}, {"measurement": "wt % of impurities at time points (months): 1", "result": 0.07, "unit": "wt %"}, {"measurement": "wt % of impurities at time points (months): 6", "result": "Dtd. (“Dtd.” in the table stands for “detected”, meaning that the impurity is detected but is under the limit of detection (0.05 wt %))"}, {"measurement": "wt % of impurities at time points (months): 9", "result": "Dtd. (“Dtd.” in the table stands for “detected”, meaning that the impurity is detected but is under the limit of detection (0.05 wt %))"}, {"measurement": "wt % of impurities at time points (months): 12", "result": "Dtd. (“Dtd.” in the table stands for “detected”, meaning that the impurity is detected but is under the limit of detection (0.05 wt %))"}]}, {"smiles": "C=CCP(=O)(O)O", "note": "[Olefinic acid, 2-propenyl phosphonic acid]", "values": [{"measurement": "wt % of impurities at time points (months): 0", "result": 0.40, "unit": "wt %"}, {"measurement": "wt % of impurities at time points (months): 1", "result": 0.46, "unit": "wt %"}, {"measurement": "wt % of impurities at time points (months): 3", "result": 0.39, "unit": "wt %"}, {"measurement": "wt % of impurities at time points (months): 6", "result": 0.42, "unit": "wt %"}, {"measurement": "wt % of impurities at time points (months): 9", "result": 0.36, "unit": "wt %"}, {"measurement": "wt % of impurities at time points (months): 12", "result": 0.40, "unit": "wt %"}]}, {"smiles": "CC(OP(=O)(O)C1OC1C)C(O)P(=O)(O)O", "note": "(stereo not drawn) [Dimer3]", "values": [{"measurement": "wt % of impurities at time points (months): 12", "result": "Dtd. (“Dtd.” in the table stands for “detected”, meaning that the impurity is detected but is under the limit of detection (0.05 wt %))"}]}, {"smiles": "CCOC(C(C)O)P(=O)(O)O", "note": "(stereo not drawn) [Ethanol adduct]", "values": [{"measurement": "wt % of impurities at time points (months): 3", "result": "Dtd. (“Dtd.” in the table stands for “detected”, meaning that the impurity is detected but is under the limit of detection (0.05 wt %))"}, {"measurement": "wt % of impurities at time points (months): 9", "result": "Dtd. (“Dtd.” in the table stands for “detected”, meaning that the impurity is detected but is under the limit of detection (0.05 wt %))"}, {"measurement": "wt % of impurities at time points (months): 12", "result": "Dtd. (“Dtd.” in the table stands for “detected”, meaning that the impurity is detected but is under the limit of detection (0.05 wt %))"}]}, {"smiles": "CC(OP(=O)(O)C1OC1C)C(O)P(=O)(O)O", "note": "(stereo not drawn) [Dimer2]", "values": [{"measurement": "wt % of impurities at time points (months): 0", "result": 0.05, "unit": "wt %"}, {"measurement": "wt % of impurities at time points (months): 1", "result": "Dtd. (“Dtd.” in the table stands for “detected”, meaning that the impurity is detected but is under the limit of detection (0.05 wt %))"}, {"measurement": "wt % of impurities at time points (months): 3", "result": 0.07, "unit": "wt %"}, {"measurement": "wt % of impurities at time points (months): 6", "result": 0.10, "unit": "wt %"}, {"measurement": "wt % of impurities at time points (months): 9", "result": 0.08, "unit": "wt %"}, {"measurement": "wt % of impurities at time points (months): 12", "result": 0.11, "unit": "wt %"}]}, {"smiles": "COC(C(C)O)P(=O)(O)O", "note": "(stereo not drawn) [Methanol adduct]", "values": [{"measurement": "wt % of impurities at time points (months): 0", "result": 0.07, "unit": "wt %"}, {"measurement": "wt % of impurities at time points (months): 1", "result": 0.18, "unit": "wt %"}, {"measurement": "wt % of impurities at time points (months): 3", "result": 0.13, "unit": "wt %"}, {"measurement": "wt % of impurities at time points (months): 6", "result": 0.35, "unit": "wt %"}, {"measurement": "wt % of impurities at time points (months): 9", "result": "Dtd. (“Dtd.” in the table stands for “detected”, meaning that the impurity is detected but is under the limit of detection (0.05 wt %))"}, {"measurement": "wt % of impurities at time points (months): 12", "result": 0.12, "unit": "wt %"}]}]}
